# Like-named read-outs stand apart in the source and are kept apart here.
# Tests used:
# Assay in all cases: MIC, serial dilutions in Müller-Hinton broth
# Assay type in all cases: cell-based
# S. aureus 1053a = test system: S. aureus 1053a
# Protocol: (§1) A comparative assessment of the spectrum of antibacterial action was carried out on archival and clinical strains of gram-positive and gram-negative microorganisms in accordance with the [Opredeleniye chuvstvitel'nosti mikroorganizmov k antibakterial'nym preparatam (Metodicheskiye ukazaniya MUK 4.2.1890-04). Utverzhdeny i vvedeny v deystviye Glavnym gosudarstvennym sanitarnym vrachom Rossiyskoy Federatsii G. G. Onishchenko 04.03.2004 g. Determination of the sensitivity of microorganisms to antibacterial drugs (Guidelines MUK 4.2.1890-04). Approved and put into effect by the Chief State Sanitary Doctor of the Russian Federation G. G. Onishchenko on 4 Mar. 2004].
# (§2) The value of the minimum inhibitory concentration (MIC) was determined by the method of serial dilutions on Müller-Hinton broth using 96-well sterile plates. Two-fold dilutions of the test substances in a nutrient medium were prepared. The final concentrations were 1-128 ug/ml. The growth of cultures was assessed visually, comparing the growth of microorganisms in the presence of test compounds with the growth of culture without them. […] The first lowest concentration of the studied substance (from a series of consecutive dilutions), where bacterial growth is not visually determined, is considered to be the minimum inhibitory concentration (MIC). MIC was determined by the method of serial dilutions in broth with increment=2, so the differences of neighboring dilutions are not considered to be significant. In each experience there is a positive (broth with growing culture) and a negative (broth without growing culture) control.
# (§3) To determine the MIC, 10 μl of culture medium was taken from those wells in which growth was not observed, and inoculation was performed on a dense Müller-Hinton broth. For the preparation of the inoculum, a pure, daily culture of gram-positive and gram-negative microorganisms grown on a dense nutrient medium was used. Nutrient medium is Müller-Hinton broth, which was prepared from dry media (Müller-Hinton broth, Acumedia, Baltimore), cultivation was carried out on agarized Müller-Hinton broth, including an additional 2% agar. The media were autoclaved at 121° C. for 15 minutes. In a sterile isotonic solution of sodium chloride, a suspension of microorganisms was prepared, adjusting the inoculum density to 0.5 according to the McFarland standard (1.5·10^8 CFU/ml). Then, the resulting inoculum was diluted to a concentration of 10^7 CFU/ml with Müller-Hinton broth. The inoculum was used within 15 minutes after preparation; the purity of the bacterial strains was monitored before each experiment.
# (§4) 100 μl of Müller-Hinton broth was added to the wells of each plate; The tested substance was introduced into the first well at a concentration of 128 μg/ml in a volume of 100 μl and its concentration was adjusted to 0.5 μg/ml by consecutive two-fold dilution. Then, the prepared inoculum (100 μI) was added to each well, thereby diluting twice the concentration of the studied compounds. […] In addition, the purity of nutrient media and solvents was monitored. The plates were incubated in a thermostat at 37° C. for 24 hours. The growth of cultures was assessed visually, comparing the growth of microorganisms in the presence of test compounds with the growth of culture without them.
# (§5) For the MIC was taken the minimum concentration of the studied compounds, providing complete suppression of the visible growth of the studied strains of microorganisms. The maximum value obtained in three independent experiments was taken as the MIC of the compound.
# Kl. pneumoniae 1435 PR = test system: Kl. pneumoniae 1435 PR
# Protocol: as §1, §2, §3, §4, §5
# E. faecium 3062 = test system: E. faecium 3062
# Protocol: as §1, §2, §3, §4, §5
# Kl. pneumoniae 1766 = test system: Kl. pneumoniae 1766
# Protocol: as §1, §2, §3, §4, §5
# S. aureus 981 MRSA = test system: S. aureus 981 MRSA
# Protocol: as §1, §2, §3, §4, §5
# Enterobacter spp. 16 = test system: Enterobacter spp. 16
# Protocol: as §1, §2, §3, §4, §5
# Acinetobacter spp. 1 = test system: Acinetobacter spp. 1
# Protocol: as §1, §2, §3, §4, §5
# E. faecium 31 = test system: E. faecium 31
# Protocol: as §1, §2, §3, §4, §5
# B. subtilis 168 = test system: B. subtilis 168
# Protocol: as §1, §2, §3, §4, §5
# E. coli 1440 = test system: E. coli 1440
# Protocol: as §1, §2, §3, §4, §5
# Stenotrophomonas spp. 9 = test system: Stenotrophomonas spp. 9
# Protocol: as §1, §2, §3, §4, §5
# S. marcescens = test system: S. marcescens
# Protocol: as §1, §2, §3, §4, §5
# S. aureus 20 = test system: S. aureus 20
# Protocol: as §1, §2, §3, §4, §5
# Proteus spp. 17 = test system: Proteus spp. 17
# Protocol: as §1, §2, §3, §4, §5
# E. coli 13 = test system: E. coli 13
# Protocol: as §1, §2, §3, §4, §5
# S. aureus 1134 MRSA = test system: S. aureus 1134 MRSA
# Protocol: as §1, §2, §3, §4, §5
# S. aureus ATCC 209p = test system: S. aureus ATCC 209p
# Protocol: as §1, §2, §3, §4, §5
# [1] = test system: Ps. aeruginosa ATTC 27853
# Protocol: as §1, §2, §3, §4, §5
# S. aureus 1163 MRSA = test system: S. aureus 1163 MRSA
# Protocol: as §1, §2, §3, §4, §5
# S. aureus 1130 MRSA = test system: S. aureus 1130 MRSA
# Protocol: as §1, §2, §3, §4, §5
# S. aureus 18 = test system: S. aureus 18
# Protocol: as §1, §2, §3, §4, §5
# E. faecium 32 = test system: E. faecium 32
# Protocol: as §1, §2, §3, §4, §5
molecule,measurement,setting,value
alkyldimethyl(phenylmethyl) ammonium chloride [Benzalconium chloride],MIC,"S. aureus 1053a; S. aureus 1053a, inoculum 10^7 CFU/ml",1 µg/mL
same,MIC,"Kl. pneumoniae 1435 PR; Kl. pneumoniae 1435 PR, inoculum 10^7 CFU/ml",32 µg/mL
same,MIC,"E. faecium 3062; E. faecium 3062, inoculum 10^7 CFU/ml",1 µg/mL
same,MIC,"Kl. pneumoniae 1766; Kl. pneumoniae 1766, inoculum 10^7 CFU/ml",16 µg/mL
same,MIC,"S. aureus 981 MRSA; S. aureus 981 MRSA, inoculum 10^7 CFU/ml",4 µg/mL
same,MIC,"Enterobacter spp. 16; Enterobacter spp. 16, inoculum 10^7 CFU/ml",4 µg/mL
same,MIC,"Acinetobacter spp. 1; Acinetobacter spp. 1, inoculum 10^7 CFU/ml",>64 µg/mL
same,MIC,"E. faecium 31; E. faecium 31, inoculum 10^7 CFU/ml",<0.5 µg/mL
same,MIC,"B. subtilis 168; B. subtilis 168, inoculum 10^7 CFU/ml",0.5 µg/mL
same,MIC,"E. coli 1440; E. coli 1440, inoculum 10^7 CFU/ml",32 µg/mL
same,MIC,"Stenotrophomonas spp. 9; Stenotrophomonas spp. 9, inoculum 10^7 CFU/ml",4 µg/mL
same,MIC,"S. marcescens; S. marcescens, inoculum 10^7 CFU/ml",2 µg/mL
same,MIC,"S. aureus 20; S. aureus 20, inoculum 10^7 CFU/ml",<0.5 µg/mL
same,MIC,"Proteus spp. 17; Proteus spp. 17, inoculum 10^7 CFU/ml",16 µg/mL
same,MIC,"E. coli 13; E. coli 13, inoculum 10^7 CFU/ml",2 µg/mL
same,MIC,"S. aureus 1134 MRSA; S. aureus 1134 MRSA, inoculum 10^7 CFU/ml",2 µg/mL
same,MIC,"S. aureus ATCC 209p; S. aureus ATCC 209p, inoculum 10^7 CFU/ml",4 µg/mL
same,MIC,"[1]; Ps. aeruginosa ATTC 27853, inoculum 10^7 CFU/ml",>64 µg/mL
same,MIC,"S. aureus 1163 MRSA; S. aureus 1163 MRSA, inoculum 10^7 CFU/ml",4 µg/mL
same,MIC,"S. aureus 1130 MRSA; S. aureus 1130 MRSA, inoculum 10^7 CFU/ml",2 µg/mL
same,MIC,"S. aureus 18; S. aureus 18, inoculum 10^7 CFU/ml",<0.5 µg/mL
same,MIC,"E. faecium 32; E. faecium 32, inoculum 10^7 CFU/ml",<0.5 µg/mL
"CCCCCCCCCCCC[N+](C)(C)Cc1cnc(C[N+](C)(C)CCCCCCCCCCCC)c2c1COC(CC)O2 (stereo not drawn) [Compound I, 5,8-(Bis(methylene (N, N-dimethyl-N-dodecylammonium))-2-ethyl-4H-[1,3]dioxino [4,5-c]pyridiniumdichloride]",MIC,"S. aureus 1053a; Staphylococcus aureus, S. aureus 1053a, inoculum 10^7 CFU/ml, read-out: MIC",2 µg/mL
same,MIC,"Kl. pneumoniae 1435 PR; Klebsiella pneumoniae, Kl. pneumoniae 1435 PR, inoculum 10^7 CFU/ml, read-out: MIC",32 µg/mL
same,MIC,"E. faecium 3062; Enterococcus faecium, E. faecium 3062, inoculum 10^7 CFU/ml, read-out: MIC",0.5 µg/mL
same,MIC,"Kl. pneumoniae 1766; Klebsiella pneumoniae, Kl. pneumoniae 1766, inoculum 10^7 CFU/ml, read-out: MIC",16 µg/mL
same,MIC,"S. aureus 981 MRSA; Staphylococcus aureus, S. aureus 981 MRSA, inoculum 10^7 CFU/ml, read-out: MIC",4 µg/mL
same,MIC,"Enterobacter spp. 16; Enterobacter spp. 16, inoculum 10^7 CFU/ml, read-out: MIC",8 µg/mL
same,MIC,"Acinetobacter spp. 1; Acinetobacter spp. 1, inoculum 10^7 CFU/ml, read-out: MIC",16 µg/mL
same,MIC,"E. faecium 31; Enterococcus faecium, E. faecium 31, inoculum 10^7 CFU/ml, read-out: MIC",0.03 µg/mL
same,MIC,"B. subtilis 168; Bacillus subtilis, B. subtilis 168, inoculum 10^7 CFU/ml, read-out: MIC",2 µg/mL
same,MIC,"E. coli 1440; Escherichia coli, E. coli 1440, inoculum 10^7 CFU/ml, read-out: MIC",32 µg/mL
same,MIC,"Stenotrophomonas spp. 9; Stenotrophomonas spp. 9, inoculum 10^7 CFU/ml, read-out: MIC",8 µg/mL
same,MIC,"S. marcescens; Serratia marcescens, S. marcescens, inoculum 10^7 CFU/ml, read-out: MIC",4 µg/mL
same,MIC,"S. aureus 20; Staphylococcus aureus, S. aureus 20, inoculum 10^7 CFU/ml, read-out: MIC",4 µg/mL
same,MIC,"Proteus spp. 17; Proteus spp. 17, inoculum 10^7 CFU/ml, read-out: MIC",64 µg/mL
same,MIC,"E. coli 13; Escherichia coli, E. coli 13, inoculum 10^7 CFU/ml, read-out: MIC",8 µg/mL
same,MIC,"S. aureus 1134 MRSA; Staphylococcus aureus, S. aureus 1134 MRSA, inoculum 10^7 CFU/ml, read-out: MIC",2 µg/mL
same,MIC,"S. aureus ATCC 209p; Staphylococcus aureus, ATCC209P, S. aureus ATCC 209p, inoculum 10^7 CFU/ml, read-out: MIC",2 µg/mL
same,MIC,"[1]; Pseudomonas aeruginosa, ATTC27853, Ps. aeruginosa ATTC 27853, inoculum 10^7 CFU/ml, read-out: MIC",4 µg/mL
same,MIC,"S. aureus 1163 MRSA; Staphylococcus aureus, S. aureus 1163 MRSA, inoculum 10^7 CFU/ml, read-out: MIC",4 µg/mL
same,MIC,"S. aureus 1130 MRSA; Staphylococcus aureus, S. aureus 1130 MRSA, inoculum 10^7 CFU/ml, read-out: MIC",2 µg/mL
same,MIC,"S. aureus 18; Staphylococcus aureus, S. aureus 18, inoculum 10^7 CFU/ml, read-out: MIC",4 µg/mL
same,MIC,"E. faecium 32; Enterococcus faecium, E. faecium 32, inoculum 10^7 CFU/ml, read-out: MIC",0.03 µg/mL
"CCCCCCCCCCCCCC(=O)NCCC[N+](C)(C)Cc1ccccc1.O.[Cl-] [Miramistin, benzyldimethyl [3-(myristoylamino)propyl]-ammonium chloride monohydrate]",MIC,"S. aureus 1053a; Staphylococcus aureus, 1053A",4 to 8 µg/mL
same,MIC,"Kl. pneumoniae 1435 PR; Klebsiella pneumoniae, 1435PR",64 µg/mL
same,MIC,"E. faecium 3062; Enterococcus faecium, 3062",0.5 µg/mL
same,MIC,"Kl. pneumoniae 1766; Klebsiella pneumoniae, 1766",64 µg/mL
same,MIC,"S. aureus 981 MRSA; Staphylococcus aureus, MRSA",4 µg/mL
same,MIC,"Enterobacter spp. 16; Enterobacter, SPP.16",64 µg/mL
same,MIC,"Acinetobacter spp. 1; Acinetobacter, SPP.1",64 µg/mL
same,MIC,"E. faecium 31; Enterococcus faecium, 31",4 µg/mL
same,MIC,"B. subtilis 168; Bacillus subtilis, 168",2 µg/mL
same,MIC,"E. coli 1440; Escherichia coli, 1440",64 µg/mL
same,MIC,"Stenotrophomonas spp. 9; Stenotrophomonas, SPP.9",64 µg/mL
same,MIC,S. marcescens; Serratia marcescens,32 µg/mL
same,MIC,"S. aureus 20; Staphylococcus aureus, 20",32 µg/mL
same,MIC,Proteus spp. 17,> 64 µg/mL
same,MIC,"E. coli 13; Escherichia coli, 13",32 µg/mL
same,MIC,"S. aureus 1134 MRSA; Staphylococcus aureus, MRSA",8 µg/mL
same,MIC,"S. aureus ATCC 209p; Staphylococcus aureus, ATCC209P",8 µg/mL
same,MIC,"[1]; Pseudomonas aeruginosa, ATTC27853",> 64 µg/mL
same,MIC,"S. aureus 1163 MRSA; Staphylococcus aureus, MRSA",4 µg/mL
same,MIC,"S. aureus 1130 MRSA; Staphylococcus aureus, MRSA",4 µg/mL
same,MIC,"S. aureus 18; Staphylococcus aureus, 18",16 µg/mL
same,MIC,"E. faecium 32; Enterococcus faecium, 32",< 0.5 µg/mL
